In this assay the target is T1, calcitonin receptors (CTR) (Homo sapiens, UniProt P30988).
T1 construct: expressed in transfected cells; host or cells: cAMP Hunter HEK293-CT-R Gs cell line (HEK293, stably transfected)
T1 sequence (P30988 25-474): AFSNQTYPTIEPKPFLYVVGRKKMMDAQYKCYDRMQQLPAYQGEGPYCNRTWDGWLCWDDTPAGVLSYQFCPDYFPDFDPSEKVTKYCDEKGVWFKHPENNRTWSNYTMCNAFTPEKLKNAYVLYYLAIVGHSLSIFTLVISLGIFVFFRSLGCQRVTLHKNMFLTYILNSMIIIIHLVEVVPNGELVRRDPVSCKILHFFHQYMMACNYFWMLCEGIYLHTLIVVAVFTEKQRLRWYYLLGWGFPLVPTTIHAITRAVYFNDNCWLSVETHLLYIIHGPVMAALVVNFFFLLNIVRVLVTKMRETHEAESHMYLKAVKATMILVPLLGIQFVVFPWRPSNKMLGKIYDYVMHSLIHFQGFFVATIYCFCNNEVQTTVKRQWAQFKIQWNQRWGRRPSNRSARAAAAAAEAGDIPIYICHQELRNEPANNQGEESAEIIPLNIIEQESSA
Description: cAMP determination (HTRF, cAMP Dynamic 2 Kit) in cAMP Hunter HEK293-CT-R Gs cell line. The assay is classed as cell-based. To be noted: HEK293 cell line stably expressing CT-R; intracellular cAMP, HTRF. The source says:
Upon activation by a ligand, Gas-coupled GPCRs can upregulate intracellular cAMP level, and cAMP, as a second messenger, can mediate a series of cellular responses. The cAMP Hunter HEK293-CT-R Gs cell line, which overexpresses Gas-coupled calcitonin receptors (CTR), was used. The binding of calcitonin (or an analog thereof) to the overexpressed CTR upregulates intracellular cAMP level. The amount of intracellular cAMP produced after activation by the calcitonin (or an analog thereof) was detected using a cAMP Dynamic 2 Kit to evaluate the biological activity of the calcitonin (or an analog thereof). HEK293 cell line stably expressing CT-R was used. Stably transfected cells were stimulated with various concentrations of agonists. The time-resolved fluorescence resonance energy signal from the cells after stimulation with different doses was measured using HTRF technology, from which the biological activity of the agonist was subsequently calculated.
On the technique in general: TR-FRET usually uses a lanthanide donor and a delayed reading to cut background.

The EC50 is the concentration at which the effect is half-maximal. On to `CC(C)C[C@H](NC(=O)[C@H](CCCCN)NC(=O)CNC(=O)[C@H](CC(C)C)NC(=O)[C@@H](NC(=O)[C@@H]1CSSC[C@H](N)C(=O)N[C@@H](CO)C(=O)N[C@@H](CC(N)=O)C(=O)N[C@@H](CC(C)C)C(=O)N[C@@H](CO)C(=O)N[C@@H]([C@@H](C)O)C(=O)N1)C(C)C)C(=O)N[C@@H](CO)C(=O)N[C@@H](CCC(N)=O)C(=O)N[C@@H](CCC(=O)O)C(=O)N[C@@H](CC(C)C)C(=O)N[C@@H](Cc1c[nH]cn1)C(=O)N[C@@H](CCCCNC(=O)CNC(=O)CNC(=O)[C@H](CO)NC(=O)CNC(=O)[C@H](CO)NC(=O)CNC(=O)[C@H](CO)NC(=O)CNC(=O)CC[C@H](NC(=O)CCCCCCCCCCCCCCCCCCC(=O)O)C(=O)O)C(=O)N[C@@H](CC(C)C)C(=O)N[C@@H](CCC(N)=O)C(=O)N[C@H](C(=O)N[C@@H](Cc1ccc(O)cc1)C(=O)N1CCC[C@H]1C(=O)N[C@@H](CCCNC(=N)N)C(=O)N[C@H](C(=O)N[C@@H](CC(N)=O)C(=O)N[C@H](C(=O)NCC(=O)N[C@@H](CO)C(=O)NCC(=O)N[C@H](C(=O)N1CCC[C@H]1C(N)=O)[C@@H](C)O)[C@@H](C)O)[C@@H](C)O)[C@@H](C)O` [Compound 9], for which the EC50 was determined as 4.1 pM.

In the case of `CC(C)C[C@H](NC(=O)[C@H](CCCCN)NC(=O)CNC(=O)[C@H](CC(C)C)NC(=O)[C@@H](NC(=O)[C@@H]1CSSC[C@H](N)C(=O)N[C@@H](CO)C(=O)N[C@@H](CC(N)=O)C(=O)N[C@@H](CC(C)C)C(=O)N[C@@H](CO)C(=O)N[C@@H]([C@@H](C)O)C(=O)N1)C(C)C)C(=O)N[C@@H](CO)C(=O)N[C@@H](CCC(N)=O)C(=O)N[C@@H](CCC(=O)O)C(=O)N[C@@H](CC(C)C)C(=O)N[C@@H](Cc1c[nH]cn1)C(=O)N[C@@H](CCCCNC(=O)CNC(=O)CC[C@H](NC(=O)CCCCCCCCCCCCCCCCCCC(=O)O)C(=O)O)C(=O)N[C@@H](CC(C)C)C(=O)N[C@@H](CCC(N)=O)C(=O)N[C@H](C(=O)N[C@@H](Cc1ccc(O)cc1)C(=O)N1CCC[C@H]1C(=O)N[C@@H](CCCNC(=N)N)C(=O)N[C@H](C(=O)N[C@@H](CC(N)=O)C(=O)N[C@H](C(=O)NCC(=O)N[C@@H](CO)C(=O)NCC(=O)N[C@H](C(=O)N1CCC[C@H]1C(N)=O)[C@@H](C)O)[C@@H](C)O)[C@@H](C)O)[C@@H](C)O` [Compound 10, Cys-Ser-Asn-Leu-Ser-Thr-Cys-Val-Leu-Gly-Lys-Leu-Ser-Gln-Glu-Leu-His-Lys(Gly-yGlu-eicosanedioic acid)-Leu-Gln-Thr-Tyr-Pro-Arg-Thr-Asn-Thr-Gly-Ser-Gly-Thr-Pro-NH2], the 50% effective concentration (EC50) was determined as 4.9 pM. Under `CC(C)C[C@H](NC(=O)[C@H](CCCCN)NC(=O)CNC(=O)[C@H](CC(C)C)NC(=O)[C@@H](NC(=O)[C@@H]1CSSC[C@H](N)C(=O)N[C@@H](CO)C(=O)N[C@@H](CC(N)=O)C(=O)N[C@@H](CC(C)C)C(=O)N[C@@H](CO)C(=O)N[C@@H]([C@@H](C)O)C(=O)N1)C(C)C)C(=O)N[C@@H](CO)C(=O)N[C@@H](CCC(N)=O)C(=O)N[C@@H](CCC(=O)O)C(=O)N[C@@H](CC(C)C)C(=O)N[C@@H](Cc1c[nH]cn1)C(=O)N[C@@H](CCCCNC(=O)CNC(=O)CNC(=O)CC[C@H](NC(=O)CCCCCCCCCCCCCCCCCCC(=O)O)C(=O)O)C(=O)N[C@@H](CC(C)C)C(=O)N[C@@H](CCC(N)=O)C(=O)N[C@H](C(=O)N[C@@H](Cc1ccc(O)cc1)C(=O)N1CCC[C@H]1C(=O)N[C@@H](CCCNC(=N)N)C(=O)N[C@H](C(=O)N[C@@H](CC(N)=O)C(=O)N[C@H](C(=O)NCC(=O)N[C@@H](CO)C(=O)NCC(=O)N[C@H](C(=O)N1CCC[C@H]1C(N)=O)[C@@H](C)O)[C@@H](C)O)[C@@H](C)O)[C@@H](C)O` [Compound 11] stands 4.3 pM. With `CC(C)C[C@H](NC(=O)[C@H](CCCCN)NC(=O)CNC(=O)[C@H](CC(C)C)NC(=O)[C@@H](NC(=O)[C@@H]1CSSC[C@H](N)C(=O)N[C@@H](CO)C(=O)N[C@@H](CC(N)=O)C(=O)N[C@@H](CC(C)C)C(=O)N[C@@H](CO)C(=O)N[C@@H]([C@@H](C)O)C(=O)N1)C(C)C)C(=O)N[C@@H](CO)C(=O)N[C@@H](CCC(N)=O)C(=O)N[C@@H](CCC(=O)O)C(=O)N[C@@H](CC(C)C)C(=O)N[C@@H](Cc1c[nH]cn1)C(=O)N[C@@H](CCCCNC(=O)CNC(=O)CNC(=O)CNC(=O)CC[C@H](NC(=O)CCCCCCCCCCCCCCCCCCC(=O)O)C(=O)O)C(=O)N[C@@H](CC(C)C)C(=O)N[C@@H](CCC(N)=O)C(=O)N[C@H](C(=O)N[C@@H](Cc1ccc(O)cc1)C(=O)N1CCC[C@H]1C(=O)N[C@@H](CCCNC(=N)N)C(=O)N[C@H](C(=O)N[C@@H](CC(N)=O)C(=O)N[C@H](C(=O)NCC(=O)N[C@@H](CO)C(=O)NCC(=O)N[C@H](C(=O)N1CCC[C@H]1C(N)=O)[C@@H](C)O)[C@@H](C)O)[C@@H](C)O)[C@@H](C)O` [Compound 12] the figure was 3.9 pM; with `CC(C)C[C@H](NC(=O)[C@H](CCCCN)NC(=O)CNC(=O)[C@H](CC(C)C)NC(=O)[C@@H](NC(=O)[C@@H]1CSSC[C@H](N)C(=O)N[C@@H](CO)C(=O)N[C@@H](CC(N)=O)C(=O)N[C@@H](CC(C)C)C(=O)N[C@@H](CO)C(=O)N[C@@H]([C@@H](C)O)C(=O)N1)C(C)C)C(=O)N[C@@H](CO)C(=O)N[C@@H](CCC(N)=O)C(=O)N[C@@H](CCC(=O)O)C(=O)N[C@@H](CC(C)C)C(=O)N[C@@H](Cc1c[nH]cn1)C(=O)N[C@@H](CCCCNC(=O)CNC(=O)CNC(=O)CNC(=O)CNC(=O)CC[C@H](NC(=O)CCCCCCCCCCCCCCCCCCC(=O)O)C(=O)O)C(=O)N[C@@H](CC(C)C)C(=O)N[C@@H](CCC(N)=O)C(=O)N[C@H](C(=O)N[C@@H](Cc1ccc(O)cc1)C(=O)N1CCC[C@H]1C(=O)N[C@@H](CCCNC(=N)N)C(=O)N[C@H](C(=O)N[C@@H](CC(N)=O)C(=O)N[C@H](C(=O)NCC(=O)N[C@@H](CO)C(=O)NCC(=O)N[C@H](C(=O)N1CCC[C@H]1C(N)=O)[C@@H](C)O)[C@@H](C)O)[C@@H](C)O)[C@@H](C)O` [Compound 13], 3.5 pM; with `CC(C)C[C@H](NC(=O)[C@H](CCCCN)NC(=O)CNC(=O)[C@H](CC(C)C)NC(=O)[C@@H](NC(=O)[C@@H]1CSSC[C@H](N)C(=O)N[C@@H](CO)C(=O)N[C@@H](CC(N)=O)C(=O)N[C@@H](CC(C)C)C(=O)N[C@@H](CO)C(=O)N[C@@H]([C@@H](C)O)C(=O)N1)C(C)C)C(=O)N[C@@H](CO)C(=O)N[C@@H](CCC(N)=O)C(=O)N[C@@H](CCC(=O)O)C(=O)N[C@@H](CC(C)C)C(=O)N[C@@H](Cc1c[nH]cn1)C(=O)N[C@@H](CCCCNC(=O)CNC(=O)CNC(=O)CNC(=O)CNC(=O)CNC(=O)CC[C@H](NC(=O)CCCCCCCCCCCCCCCCCCC(=O)O)C(=O)O)C(=O)N[C@@H](CC(C)C)C(=O)N[C@@H](CCC(N)=O)C(=O)N[C@H](C(=O)N[C@@H](Cc1ccc(O)cc1)C(=O)N1CCC[C@H]1C(=O)N[C@@H](CCCNC(=N)N)C(=O)N[C@H](C(=O)N[C@@H](CC(N)=O)C(=O)N[C@H](C(=O)NCC(=O)N[C@@H](CO)C(=O)NCC(=O)N[C@H](C(=O)N1CCC[C@H]1C(N)=O)[C@@H](C)O)[C@@H](C)O)[C@@H](C)O)[C@@H](C)O` [Compound 14], 3.1 pM. With `CC(C)C[C@H](NC(=O)[C@H](CCCCN)NC(=O)CNC(=O)[C@H](CC(C)C)NC(=O)[C@@H](NC(=O)[C@@H]1CSSC[C@H](N)C(=O)N[C@@H](CO)C(=O)N[C@@H](CC(N)=O)C(=O)N[C@@H](CC(C)C)C(=O)N[C@@H](CO)C(=O)N[C@@H]([C@@H](C)O)C(=O)N1)C(C)C)C(=O)N[C@@H](CO)C(=O)N[C@@H](CCC(N)=O)C(=O)N[C@@H](CCC(=O)O)C(=O)N[C@@H](CC(C)C)C(=O)N[C@@H](Cc1c[nH]cn1)C(=O)N[C@@H](CCCCNC(=O)CNC(=O)CNC(=O)CNC(=O)CNC(=O)CNC(=O)CNC(=O)CC[C@H](NC(=O)CCCCCCCCCCCCCCCCCCC(=O)O)C(=O)O)C(=O)N[C@@H](CC(C)C)C(=O)N[C@@H](CCC(N)=O)C(=O)N[C@H](C(=O)N[C@@H](Cc1ccc(O)cc1)C(=O)N1CCC[C@H]1C(=O)N[C@@H](CCCNC(=N)N)C(=O)N[C@H](C(=O)N[C@@H](CC(N)=O)C(=O)N[C@H](C(=O)NCC(=O)N[C@@H](CO)C(=O)NCC(=O)N[C@H](C(=O)N1CCC[C@H]1C(N)=O)[C@@H](C)O)[C@@H](C)O)[C@@H](C)O)[C@@H](C)O` [Compound 15] the figure was 6.5 pM.

Source of the values: patent EP4691482A1, “LONG-ACTING CALCITONIN ANALOG” (Chengdu Aoda Biotechnology Co., Ltd., priority 2023, dated 2024).
